The first assay has as its system Alternaria solani. Description: Test C: tomato early blight, preventive spray on tomato seedlings, visual disease rating. The following applies: tomato early blight, preventive spray; 100 = 100% disease control, 0 = no control.
With `Cn1nc(C2CC2)c(-c2ccc(F)cc2Cl)c1Nc1ccc(F)cc1F` [compound 108], the “Test C rating (% disease control)” value was found to be 0%.

For the compound `Cc1nn(C)c(Nc2ccc(F)c(F)c2)c1-c1c(F)cc(C#N)cc1F` [compound 114], the “Test C rating (% disease control)” value was found to be 24%.

As for `COc1cc(OC)c(Nc2c(-c3c(F)cc(F)cc3F)c(C)nn2C)cc1Cl` [compound 100], the “Test C rating (% disease control)” value was found to be 0%.

`Cc1nn(C)c(Nc2ccc(F)c(Cl)c2)c1-c1c(F)cc(C#N)cc1F` [compound 144]: the “Test C rating (% disease control)” value worked out at 9%.

Turning to `Cc1nn(C)c(Oc2c(F)cc(C#N)cc2F)c1-c1cccc(F)c1` [compound 43], the “Test C rating (% disease control)” value is 0%.

`COc1cc(F)c(-c2c(C)nn(C)c2Nc2ncc(Cl)cc2Cl)c(F)c1` [compound 102]: the “Test C rating (% disease control)” value came to 100%.

Still in this assay, the particulars now being: tomato early blight; 100 = 100% disease control, 0 = no control relative to controls.
For `Cc1nn(C)c(Nc2ccc(F)cc2F)c1-c1c(F)cccc1C(F)(F)F` [compound 255], the “Test C rating (% disease control)” value came out at 0%.

The next assay relates to Erysiphe graminis f sp. tritici. Description: Test J: wheat powdery mildew, preventive spray on wheat seedlings, visual disease rating. Particulars: wheat powdery mildew, preventive spray; 100 = 100% disease control, 0 = no control.
Consider `Cn1nc(C2CC2)c(-c2ccc(F)cc2Cl)c1Nc1ccc(F)cc1F` [compound 108], for which the “Test J rating (% disease control)” value came to 97%.

Consider `Cc1nn(C)c(Nc2ccc(F)c(F)c2)c1-c1c(F)cc(C#N)cc1F` [compound 114], for which the “Test J rating (% disease control)” value worked out at 84%.

For `COc1cc(OC)c(Nc2c(-c3c(F)cc(F)cc3F)c(C)nn2C)cc1Cl` [compound 100], the “Test J rating (% disease control)” value is reported as 0%.

With `Cc1nn(C)c(Nc2ccc(F)c(Cl)c2)c1-c1c(F)cc(C#N)cc1F` [compound 144], the “Test J rating (% disease control)” value came to 91%.

In the case of `Cc1nn(C)c(Oc2c(F)cc(C#N)cc2F)c1-c1cccc(F)c1` [compound 43], the “Test J rating (% disease control)” value came to 99%.

With `COc1cc(F)c(-c2c(C)nn(C)c2Nc2ncc(Cl)cc2Cl)c(F)c1` [compound 102], the “Test J rating (% disease control)” value worked out at 98%.

Staying with this assay, now noted: wheat powdery mildew; 100 = 100% disease control, 0 = no control relative to controls.
`Cc1nn(C)c(Nc2ccc(F)cc2F)c1-c1c(F)cccc1C(F)(F)F` [compound 255]: the “Test J rating (% disease control)” value was found to be 39%.

A further assay relates to Botrytis cinerea. Kind of assay: Test B: tomato Botrytis, preventive spray on tomato seedlings, visual disease rating. The following applies: tomato Botrytis, preventive spray; 100 = 100% disease control, 0 = no control.
For `Cn1nc(C2CC2)c(-c2ccc(F)cc2Cl)c1Nc1ccc(F)cc1F` [compound 108], the “Test B rating (% disease control)” value was 97%.

On to `Cc1nn(C)c(Nc2ccc(F)c(F)c2)c1-c1c(F)cc(C#N)cc1F` [compound 114], for which the “Test B rating (% disease control)” value amounted to 99%.

`COc1cc(OC)c(Nc2c(-c3c(F)cc(F)cc3F)c(C)nn2C)cc1Cl` [compound 100]: the “Test B rating (% disease control)” value is given as 38%.

For the compound `Cc1nn(C)c(Nc2ccc(F)c(Cl)c2)c1-c1c(F)cc(C#N)cc1F` [compound 144], the “Test B rating (% disease control)” value worked out at 99%.

Turning to `Cc1nn(C)c(Oc2c(F)cc(C#N)cc2F)c1-c1cccc(F)c1` [compound 43], the “Test B rating (% disease control)” value is on record as 76%.

For the compound `COc1cc(F)c(-c2c(C)nn(C)c2Nc2ncc(Cl)cc2Cl)c(F)c1` [compound 102], the “Test B rating (% disease control)” value is 100%.

Staying with this assay, now noted: tomato Botrytis; 100 = 100% disease control, 0 = no control relative to controls.
`Cc1nn(C)c(Nc2ccc(F)cc2F)c1-c1c(F)cccc1C(F)(F)F` [compound 255]: the “Test B rating (% disease control)” value is listed as 100%.

The subject of the next assay is Septoria tritici. Kind of assay: Test G: wheat leaf blotch, preventive spray on wheat seedlings, visual disease rating. Particulars: wheat leaf blotch, preventive spray; 100 = 100% disease control, 0 = no control.
Regarding `Cn1nc(C2CC2)c(-c2ccc(F)cc2Cl)c1Nc1ccc(F)cc1F` [compound 108], the “Test G rating (% disease control)” value turned out to be 98%.

Turning to `Cc1nn(C)c(Nc2ccc(F)c(F)c2)c1-c1c(F)cc(C#N)cc1F` [compound 114], the “Test G rating (% disease control)” value came to 99%.

`COc1cc(OC)c(Nc2c(-c3c(F)cc(F)cc3F)c(C)nn2C)cc1Cl` [compound 100]: the “Test G rating (% disease control)” value stood at 48%.

`Cc1nn(C)c(Nc2ccc(F)c(Cl)c2)c1-c1c(F)cc(C#N)cc1F` [compound 144]: the “Test G rating (% disease control)” value came out at 99%.

`Cc1nn(C)c(Oc2c(F)cc(C#N)cc2F)c1-c1cccc(F)c1` [compound 43]: the “Test G rating (% disease control)” value is 97%.

With `COc1cc(F)c(-c2c(C)nn(C)c2Nc2ncc(Cl)cc2Cl)c(F)c1` [compound 102], the “Test G rating (% disease control)” value is 99%.

Still in this assay, the particulars now being: wheat leaf blotch; 100 = 100% disease control, 0 = no control relative to controls.
On to `Cc1nn(C)c(Nc2ccc(F)cc2F)c1-c1c(F)cccc1C(F)(F)F` [compound 255], for which the “Test G rating (% disease control)” value is recorded as 0%.

The next assay relates to Puccinia recondita f. sp. tritici. Kind of assay: Test I: wheat leaf rust, preventive spray on wheat seedlings, visual disease rating. The following applies: wheat leaf rust, preventive spray; 100 = 100% disease control, 0 = no control.
Consider `Cn1nc(C2CC2)c(-c2ccc(F)cc2Cl)c1Nc1ccc(F)cc1F` [compound 108], for which the “Test I rating (% disease control)” value is listed as 16%.

As to `Cc1nn(C)c(Nc2ccc(F)c(F)c2)c1-c1c(F)cc(C#N)cc1F` [compound 114], the “Test I rating (% disease control)” value turned out to be 99%.

With `COc1cc(OC)c(Nc2c(-c3c(F)cc(F)cc3F)c(C)nn2C)cc1Cl` [compound 100], the “Test I rating (% disease control)” value is 41%.

For the compound `Cc1nn(C)c(Nc2ccc(F)c(Cl)c2)c1-c1c(F)cc(C#N)cc1F` [compound 144], the “Test I rating (% disease control)” value was 98%.

As for `Cc1nn(C)c(Oc2c(F)cc(C#N)cc2F)c1-c1cccc(F)c1` [compound 43], the “Test I rating (% disease control)” value is 82%.

As for `COc1cc(F)c(-c2c(C)nn(C)c2Nc2ncc(Cl)cc2Cl)c(F)c1` [compound 102], the “Test I rating (% disease control)” value worked out at 100%.

The assay is the same for the next values; noted with them: wheat leaf rust, preventive; 100 = 100% disease control, 0 = no control relative to controls.
Consider `Cc1nn(C)c(Nc2ccc(F)cc2F)c1-c1c(F)cccc1C(F)(F)F` [compound 255], for which the “Test I rating (% disease control)” value came out at 0%.

The subject of a further assay is Septoria nodorum. Description: Test F: Septoria glume blotch, preventive spray on wheat seedlings, visual disease rating. The following applies: Septoria glume blotch on wheat, preventive spray; 100 = 100% disease control, 0 = no control.
As to `Cn1nc(C2CC2)c(-c2ccc(F)cc2Cl)c1Nc1ccc(F)cc1F` [compound 108], the “Test F rating (% disease control)” value came out at 0%.

As to `Cc1nn(C)c(Nc2ccc(F)c(F)c2)c1-c1c(F)cc(C#N)cc1F` [compound 114], the “Test F rating (% disease control)” value came to 69%.

In the case of `COc1cc(OC)c(Nc2c(-c3c(F)cc(F)cc3F)c(C)nn2C)cc1Cl` [compound 100], the “Test F rating (% disease control)” value was 0%.

For the compound `Cc1nn(C)c(Nc2ccc(F)c(Cl)c2)c1-c1c(F)cc(C#N)cc1F` [compound 144], the “Test F rating (% disease control)” value worked out at 40%.

Regarding `Cc1nn(C)c(Oc2c(F)cc(C#N)cc2F)c1-c1cccc(F)c1` [compound 43], the “Test F rating (% disease control)” value was determined as 0%.

As to `COc1cc(F)c(-c2c(C)nn(C)c2Nc2ncc(Cl)cc2Cl)c(F)c1` [compound 102], the “Test F rating (% disease control)” value stood at 98%.

Staying with this assay, now noted: Septoria glume blotch; 100 = 100% disease control, 0 = no control relative to controls.
Regarding `Cc1nn(C)c(Nc2ccc(F)cc2F)c1-c1c(F)cccc1C(F)(F)F` [compound 255], the “Test F rating (% disease control)” value is 0%.

Another assay relates to Puccinia recondita f. sp. tritici. Description: Test H: wheat leaf rust, curative spray on inoculated wheat seedlings, visual disease rating. Particulars: wheat leaf rust, curative spray; 100 = 100% disease control, 0 = no control.
In the case of `Cn1nc(C2CC2)c(-c2ccc(F)cc2Cl)c1Nc1ccc(F)cc1F` [compound 108], the “Test H rating (% disease control)” value was 0%.

For the compound `Cc1nn(C)c(Nc2ccc(F)c(F)c2)c1-c1c(F)cc(C#N)cc1F` [compound 114], the “Test H rating (% disease control)” value worked out at 8%.

Turning to `COc1cc(OC)c(Nc2c(-c3c(F)cc(F)cc3F)c(C)nn2C)cc1Cl` [compound 100], the “Test H rating (% disease control)” value stood at 0%.

In the case of `Cc1nn(C)c(Nc2ccc(F)c(Cl)c2)c1-c1c(F)cc(C#N)cc1F` [compound 144], the “Test H rating (% disease control)” value stood at 0%.

As to `Cc1nn(C)c(Oc2c(F)cc(C#N)cc2F)c1-c1cccc(F)c1` [compound 43], the “Test H rating (% disease control)” value was found to be 66%.

For the compound `COc1cc(F)c(-c2c(C)nn(C)c2Nc2ncc(Cl)cc2Cl)c(F)c1` [compound 102], the “Test H rating (% disease control)” value is 0%.

The assay is the same for the next values; noted with them: wheat leaf rust, curative; 100 = 100% disease control, 0 = no control relative to controls.
With `Cc1nn(C)c(Nc2ccc(F)cc2F)c1-c1c(F)cccc1C(F)(F)F` [compound 255], the “Test H rating (% disease control)” value is listed as 0%.

Source of the values: patent US10448639B2, “Fungicidal pyrazoles” (FMC CORPORATION, priority 2009, dated 2019).
